One block for each compound: values may come before it.
Key:
Pseudomonas aeruginosa [1] = assay: Antibiofilm activity against Pseudomonas aeruginosa PA14 assessed as inhibition of biofilm formation at 100 uM; type: functional; design: scale not given: the % may be the effect or the level left
[2] = Antagonist activity at Pseudomonas aeruginosa MvfR
[3] = Inhibition of quorum sensing system in Pseudomonas aeruginosa PAO1 assessed as decrease in pqsR expression by PCR analysis
[4] = Inhibition of Pseudomonas aeruginosa FabI
Pseudomonas aeruginosa [5] = assay: Antibiofilm activity against Pseudomonas aeruginosa PA14 assessed as inhibition of biofilm formation; type: functional, organism-based
Pseudomonas aeruginosa [6] = assay: Antibiofilm activity against Pseudomonas aeruginosa PAO1 assessed as inhibition of biofilm formation; type: functional, organism-based
[7] = Binding affinity to D-galactose (unknown origin) assessed as dissociation constant

Compound: CCCCCCS(=O)(=O)NCCCc1c[nH]c(N)n1
Activity (Pseudomonas aeruginosa [1]): 42%

Compound: Oc1cc(Cl)ccc1Oc1ccc(Cl)cc1Cl [TRICLOSAN]
IC50 [4]: 200 nM

Compound: O=C[C@H](O)[C@@H](O)[C@@H](O)[C@H](O)CO [GALACTOSE]
Kd [7]: 87.5 µM

Other lines, results leading:

IC50 [2]: 2 nM
IC50 [3]: 2000 nM
Compound: CCCCCCCc1[nH]c2ccc([N+](=O)[O-])cc2c(=O)c1C(N)=O

IC50 (Pseudomonas aeruginosa [5]): 530 nM
IC50 (Pseudomonas aeruginosa [6]): 5.6 µM
Compound: C/C(=C\c1ccccc1)Cn1cc(CCCCCc2c[nH]c(N)n2)nn1
